Source: US20240140895A1, “NOVEL AROMATIC MOLECULES” (XENIOPRO GmbH, priority 2018, published 2024)

Experiments:
Format in all cases: cell-based
[1] = test system: SCC-25 cells (human tongue squamous cell carcinoma cells); test: Proliferation assay (alamarBlue) with SCC-25 cells
Text: (§1) The antiproliferative activities of compounds falling under formula (Ia), (Tb) and (Ic), respectively, were investigated on cells or cell lines originating from a disorder of the haematopoietic system, including the myeloid cell compartment and the lymphoid cell compartment (T-cells and B-cells), the neuroendocrine system, the cervix, the breast, the ovaries, the lung, the gastrointestinal tract, and the mucosal epithelium, as well as from the skin epithelium and from the muscle. To this end, HL-60 cells, NB-4 cells, HH cells, RPMI-8402 cells, TANOUE cells, TT cells, HeLa cells, MDA-MB-231 cells, FU-OV-1 cells, LOU-NH91 cells, 23132/87 cells, CAL-27 cells, BHY cells, SCC-25 cells, A-431 cells, human primary epidermal keratinocytes (HPEK), and C2C12 cells were seeded into 96-well plates suitable for fluorescence assays (CORNING #3598) at following initial cell numbers: 1000 cells per well for HL-60; 1000 cells per well for NB-4; 5000 cells per well for HH; 5000 cells per well for RPMI-8402; 1500 cells per well for TANOUE; 9000 cells per well for TT; 2000 cells per well for HeLa; 3000 cells per well for MDA-MB-231; 3000 cells per well for FU-OV-1; 4000 cells per well for LOU-NH91; 2000 cells per well for 23132/87; 2000 cells per well for CAL-27; 1500 cells per well for BHY; 1500 cells per well for SCC-25; 700 cells per well for A-431; 1000 cells per well for HPEK; 500 cells per well for C2-C12. The cells were treated with compounds at indicated final concentrations (diluted from the 1000× stock-solutions in DMSO to a final DMSO concentration of 0.1% v/v in H2O (Water For Injection, WFI, Fisherscientific #10378939)) or with the empty carrier DMSO at 0.1% v/v as control for 5 days. At day 5 after starting the treatments the cells were subjected to the alamarBlue® Proliferation Assay (Bio-Rad Serotec GmbH, BUF012B) according to the protocol of the manufacturer. The readout was taken with a multi-well plate-reader in the fluorescence mode with applying a filter for excitation at 560 nm (band width 10 nm) and for emission at 590 nm (band width 10 nm). Control treatments for growth inhibition with commercial compounds such as Methotrexate (MTREX) and Resveratrol (RES) were included on every plate. Some of the test compounds of the present invention were obtained and applied as their salts. According cases are indicated in the column “Specification” in Table 30 to Table 62 and by their sum formula in Table 63.
(§2) The assays were performed in duplicate or more replicates of independent single experiments each containing a six-fold replicate for every condition. For every individual plate, the measured fluorescence intensity values of the conditions with compound treatment were normalized against the corresponding equally weighted arithmetic mean of the fluorescence intensity values of the six DMSO treated control wells in order to obtain the relative values to a baseline level of 1.0.
(§3) Two independent outlier analyses were performed according to the methods by Peirce and Chauvenet (Ross, Journal of Engineering Technology 2003, 1-12). Outliers confirmed by at least one of the methods were excluded from the calculations but not more than one value out of six per compound within a single experiment. The weighted arithmetic mean (here abbreviated as AVEw) for each compound was calculated from the normalized values over all independent replicates of the single experiments comprising the six replicates each. The corresponding standard deviation for the weighted arithmetic mean was calculated according to the method described by Bronstein et al. (Bronstein, Semendjajew, Musiol, Muhlig, Taschenbuch der Mathematik, 5th edition 2001 (German), publisher: Verlag Harri Deutsch, Frankfurt am Main and Thun) and was combined with the Gauβ′ error propagation associated with the performed calculation for the normalization. The resulting standard deviation is herein referred to as “combined standard deviation”. […]

[2] = test system: BHY cells (human oral squamous cell carcinoma cells); test: Proliferation assay (alamarBlue) with BHY cells; details: read-out: Activity Range: weighted arithmetic mean (AVEw) of normalized fluorescence intensity relative to DMSO basis level 1.0
Text: as §1, §2, §3

[3] = test system: A-431 cells (human epidermoid squamous cell carcinoma cells); test: Proliferation assay (alamarBlue) with A-431 cells
Text: as §1, §2, §3

[4] = test system: NB-4 cells (human acute promyelocytic leukemia cells); test: Proliferation assay (alamarBlue) with NB-4 cells
Text: as §1, §2, §3

[5] = test system: LOU-NH91 cells (human lung squamous cell carcinoma cells); test: Proliferation assay (alamarBlue) with LOU-NH91 cells
Text: (§4) The antiproliferative activities of compounds falling under formula (Ia), (Tb) and (Ic), respectively, were investigated on cells or cell lines originating from a disorder of the haematopoietic system, including the myeloid cell compartment and the lymphoid cell compartment (T-cells and B-cells), the neuroendocrine system, the cervix, the breast, the ovaries, the lung, the gastrointestinal tract, and the mucosal epithelium, as well as from the skin epithelium and from the muscle. To this end, HL-60 cells, NB-4 cells, HH cells, RPMI-8402 cells, TANOUE cells, TT cells, HeLa cells, MDA-MB-231 cells, FU-OV-1 cells, LOU-NH91 cells, 23132/87 cells, CAL-27 cells, BHY cells, SCC-25 cells, A-431 cells, human primary epidermal keratinocytes (HPEK), and C2C12 cells were seeded into 96-well plates suitable for fluorescence assays (CORNING #3598) at following initial cell numbers: 1000 cells per well for HL-60; 1000 cells per well for NB-4; 5000 cells per well for HH; 5000 cells per well for RPMI-8402; 1500 cells per well for TANOUE; 9000 cells per well for TT; 2000 cells per well for HeLa; 3000 cells per well for MDA-MB-231; 3000 cells per well for FU-OV-1; 4000 cells per well for LOU-NH91; 2000 cells per well for 23132/87; 2000 cells per well for CAL-27; 1500 cells per well for BHY; 1500 cells per well for SCC-25; 700 cells per well for A-431; 1000 cells per well for HPEK; 500 cells per well for C2-C12. […] The readout was taken with a multi-well plate-reader in the fluorescence mode with applying a filter for excitation at 560 nm (band width 10 nm) and for emission at 590 nm (band width 10 nm). […]
(§5) The assays were performed in duplicate or more replicates of independent single experiments each containing a six-fold replicate for every condition. For every individual plate, the measured fluorescence intensity values of the conditions with compound treatment were normalized against the corresponding equally weighted arithmetic mean of the fluorescence intensity values of the six DMSO treated control wells in order to obtain the relative values to a baseline level of 1.0. […]

[6] = test system: MDA-MB-231 cells (human breast carcinoma cells); test: Proliferation assay (alamarBlue) with MDA-MB-231 cells
Text: as §1, §2, §3

[7] = test system: RPMI-8402 cells (human T cell acute lymphoblastic leukemia cells); test: Proliferation assay (alamarBlue) with RPMI-8402 cells
Text: as §1, §2, §3

[8] = test system: FU-OV-1 cells (human ovarian carcinoma cells); test: Proliferation assay (alamarBlue) with FU-OV-1 cells
Text: as §4, §5

[9] = test system: 23132/87 cells (human gastric adenocarcinoma cells); test: Proliferation assay (alamarBlue) with 23132/87 cells; details: read-out: Activity Range: weighted arithmetic mean (AVEw) of normalized fluorescence intensity relative to DMSO basis level 1.0
Text: as §1, §2, §3

[10] = test system: TANOUE cells (human B cell leukemia cells); test: Proliferation assay (alamarBlue) with TANOUE cells
Text: as §1, §2, §3

[11] = test system: CAL-27 cells (human tongue squamous cell carcinoma cells); test: Proliferation assay (alamarBlue) with CAL-27 cells; details: read-out: Activity Range: weighted arithmetic mean (AVEw) of normalized fluorescence intensity relative to DMSO basis level 1.0
Text: as §1, §2, §3

[12] = test system: C2C12 cells (murine myoblast cells); test: Proliferation assay (alamarBlue) with C2C12 cells; details: Mus musculus, compound at 20 μM, read-out: Activity Range: weighted arithmetic mean (AVEw) of normalized fluorescence intensity, relative to DMSO basis level 1.0
Text: as §1, §2, §3

[13] = test system: TT cells (human medullary thyroid carcinoma cells); test: Proliferation assay (alamarBlue) with TT cells
Text: as §4, §5

[14] = test system: HH cells (human cutaneous T-cell lymphoma cells); test: Proliferation assay (alamarBlue) with HH cells; details: Table 34, compound at 20 μM, read-out: Activity Range (AVEw, weighted arithmetic mean of normalized fluorescence intensity, DMSO = 1.0)
Text: as §1, §2, §3

[15] = test system: HeLa cells (human cervical adenocarcinoma cells); test: Proliferation assay (alamarBlue) with HeLa cells
Text: as §4, §5

[16] = Homo sapiens, read-out: Activity Range: weighted arithmetic mean (AVEw) of normalized fluorescence intensity relative to DMSO basis level 1.0

Oc1ccc(C=Cc2cc(O)cc(O)c2)cc1 [RES, resveratrol, reference compound]
Activity Range: weighted arithmetic mean (AVEw) of normalized fluorescence intensity relative to DMSO basis level 1.0 ([1]; 20 μM): 0.4 ± 0.1 | activity at 20 µM [1, 16]: 40 ± 10% | activity at 20 µM [2]: 50 ± 10% | activity at 20 µM ([3]; Homo sapiens, 20 μM, read-out: Activity Range: weighted arithmetic mean (AVEw) of normalized fluorescence intensity relative to DMSO basis level 1.0): 60% | Activity Range: weighted arithmetic mean (AVEw) of normalized fluorescence intensity relative to DMSO basis level 1.0 ([3]; compound at 20 μM): 0.6 ± 0.0 | Activity Range: weighted arithmetic mean (AVEw) of normalized fluorescence intensity relative to DMSO basis level 1.0 ([3]; control at 40 μM): 0.2 ± 0.0 | activity at 20 µM ([4]; Homo sapiens, Table 32, compound at 20 μM, read-out: Activity Range (AVEw, weighted arithmetic mean of normalized fluorescence intensity, DMSO = 1.0)): 10% | Activity Range (AVEw, weighted arithmetic mean of normalized fluorescence intensity, DMSO = 1.0) ([4]; Table 33, compound at 20 μM): 0.1 ± 0.0 | Activity Range: weighted arithmetic mean (AVEw) of normalized fluorescence intensity relative to DMSO basis level 1.0 ([5]; 20 μM): 0.9 ± 0.1 | Activity Range: weighted arithmetic mean (AVEw) of normalized fluorescence intensity relative to DMSO basis level 1.0 ([5]; control at 40 μM): 0.7 ± 0.0 | Activity Range: weighted arithmetic mean (AVEw) of normalized fluorescence intensity relative to DMSO basis level 1.0 ([6]; 20 μM): 0.6 ± 0.0 | activity at 20 µM [6, 16]: 60% | Activity Range: weighted arithmetic mean (AVEw) of normalized fluorescence intensity relative to DMSO basis level 1.0 ([7]; 20 μM): 0.6 ± 0.0 | activity at 20 µM [7, 16]: 60% | Activity Range: weighted arithmetic mean (AVEw) of normalized fluorescence intensity relative to DMSO basis level 1.0 ([8]; 20 μM): 0.7 ± 0.0 | Activity Range: weighted arithmetic mean (AVEw) of normalized fluorescence intensity relative to DMSO basis level 1.0 ([8]; control at 40 μM): 0.4 ± 0.0 | activity at 20 µM [9]: 50 ± 10% | Activity Range: weighted arithmetic mean (AVEw) of normalized fluorescence intensity relative to DMSO basis level 1.0 ([10]; 20 μM): 0.1 ± 0.0 | activity at 20 µM ([10]; Homo sapiens, B-cell, read-out: Activity Range: weighted arithmetic mean (AVEw) of normalized fluorescence intensity relative to DMSO basis level 1.0): 10% | activity at 20 µM [11]: 80 ± 10% | activity at 20 µM [12]: 80% | Activity Range: weighted arithmetic mean (AVEw) of normalized fluorescence intensity relative to DMSO basis level 1.0 ([13]; compound at 20 μM): 0.9 ± 0.0 | Activity Range: weighted arithmetic mean (AVEw) of normalized fluorescence intensity relative to DMSO basis level 1.0 ([13]; control at 40 μM): 0.7 ± 0.0 | activity at 20 µM [14]: 60 ± 10% | Activity Range: weighted arithmetic mean (AVEw) of normalized fluorescence intensity relative to DMSO basis level 1.0 ([15]; compound at 20 μM): 0.9 ± 0.0 | Activity Range: weighted arithmetic mean (AVEw) of normalized fluorescence intensity relative to DMSO basis level 1.0 ([15]; control at 40 μM): 0.4 ± 0.1
